Series [1] can be described thus: Cytotoxicity assay (MTT) in RAW264.7 cells. The class given is cell-based, mouse. The settings on record: mouse, RAW264.7 cells, RAW264.7, MTT, 24 h, vehicle control = 100%, mean ± S.E., n=4, read-out: Cell Viability %. Here is the method: (§1) RAW264.7 cells were grown in D-MEM medium supplemented with 10% FBS and antibiotics (100 units/mL penicillin G sodium salt and 100 μg/mL streptomycin sulfate). Cells were incubated at 37 °C in a 5% CO2 humidified incubator.
Cytotoxicity assay was performed according to a method reported previously Briefly, RAW264.7 cells (5 × 10^4 cells in 100 μL) were seeded onto a 96-well microplate and incubated for 24 h. DMEM containing test samples (100 μL total volume, final concentration of 30, 10, 3, or 1 μM) dissolved in DMSO (final concentration 0.2%) was added. After treatment for 24 h, MTT solution was added. After a 3-h incubation, 20% sodium dodecyl sulfate in 0.1 M HCl was added to dissolve the formazan produced in the cells. The absorbance of each well was read at 570 nm using a microplate reader. The optical density of vehicle control cells was assumed to be 100%.

In series [2] the test system is NO production in RAW264.7 mouse macrophages stimulated by lipopolysaccharide (LPS). Description: Inhibitory assay of NO production in LPS-stimulated RAW264.7 macrophages. The series is classed as cell-based. The settings on record: RAW264.7 + LPS 5 μg/mL, 24 h; for Inhibitory Ratio of NO % (produced NO ratio) / activity at 30 µM: 30 μM; for Inhibitory Ratio of NO % (produced NO ratio) / activity at 1 µM / activity at 3 µM / activity at 10 µM / activity at 30 µM: vehicle control = 100%, mean ± S.E., n=4; for activity at 1 µM / activity at 3 µM / activity at 10 µM / activity at 30 µM / IC50: Mus musculus; for activity at 1 µM / activity at 3 µM / activity at 10 µM: read-out: Inhibitory Ratio of NO %; for activity at 30 µM: read-out: Inhibitory Ratio of NO % (produced NO ratio).
From the text: Macrophages may be a potential therapeutic target for inflammatory diseases. Activated macrophages release pro-inflammatory mediators, such as NO, reactive oxygen species, interleukin-1β, tumor necrosis factor-α, and other inflammatory mediators, which play important roles in biological defense. However, the overexpression of these mediators had been implicated in diseases such as osteoarthritis, rheumatoid arthritis, and diabetes because the increased production of pro-inflammatory mediators induces severe or chronic inflammation. Isolated compounds (1–12), and N^G-monomethyl-L-arginine, acetate (L-NMMA), which is a NO synthase inhibitor and was used as a positive control, were evaluated for macrophage activation by the inhibitory assay of NO production in RAW264.7 mouse macrophages stimulated by lipopolysaccharide (LPS).
as §1
An inhibitory assay of NO production was performed according to a method reported previously with slight modifications. Briefly, RAW264.7 cells (5 × 10^4 cells in 100 μL) were seeded into a 96-well microplate and incubated for 24 h. DMEM containing test samples (100 μL total volume, final concentration of 30, 10, 3, or 1 μM) dissolved in DMSO (final concentration 0.2%), and LPS (final concentration of 5 μg/mL), was added. After treatment for 24 h, the supernatant of culture medium was transferred to another 96-well microplate, and then 50 μL of 0.15% N-(1-naphtyl)ethylenediamine in H2O, and 1.5% sulfanilamide in 7.5% phosphoric acid were added. After incubation for 30 min, the absorbance of each well was read at 570 nm using a microplate reader. The optical density of vehicle control cells was assumed to be 100%.

Some results are limits rather than exact numbers.

As usually defined, the viability is a read-out of living cells in per cent, often relative to untreated cells. What is called IC50 is the point on the concentration scale where inhibition reaches its midpoint.

Regarding `COC(=O)CC(OC(C)=O)C1(C)C(C(C)(C)O)CC(=O)C2(C)C1CCC1(C)C(C3=CC(=O)OC3O)OC(=O)C3OC312` (centres unmarked) [Compound 3, 21,23-dihydro-21-hydroxy-23-oxonomilinic acid methyl ester], in series [1], the viability at 24 h, 1 µM is 96.8%; the viability at 24 h, 3 µM came out at 94.5%; the viability at 24 h, 10 µM worked out at 93.2%; the viability at 24 h, 30 µM stood at 93.4%. Besides, in series [2], the “Inhibitory Ratio of NO % (produced NO ratio)” value (shortened to “Inhibitory Ratio of NO %”) stood at 80.3 ± 1.2 %, the activity at 1 µM amounted to 99.4 ± 0.8%, the activity at 3 µM is 99.4 ± 2.3% and the activity at 10 µM was 94.1 ± 1.9%. In series [2], the activity at 30 µM was found to be 80.3% and the IC50 was more than 30 µM.

With `CC1(C)OC(=O)C=C[C@]2(C)[C@H]3CC[C@@]4(C)[C@H](C5=CC(=O)OC5O)OC(=O)[C@H]5O[C@]54[C@]3(C)C(=O)C[C@@H]12` (some centres unmarked) [Compound 10, kihadanin A], in series [1], the viability at 24 h, 1 µM is 105%; the viability at 24 h, 3 µM came to 102%; the viability at 24 h, 10 µM was determined as 98.9%; the viability at 24 h, 30 µM came out at 98.6%. In series [2], the activity at 1 µM was 95 ± 4.2%, the activity at 3 µM is 96.8 ± 1.3%, the activity at 10 µM is 97.7 ± 2.2% and the activity at 30 µM was found to be 86.6 ± 1.6%. In addition, in series [2], the IC50 is more than 30 µM.

For the molecule `[H]/N=C(/NC)NCCC[C@H](N)C(=O)O` [L-NMMA, N^G-monomethyl-L-arginine, acetate, reference compound], in series [1], the viability at 24 h, 1 µM is 102%; the viability at 24 h, 3 µM was 102%; the viability at 24 h, 10 µM was found to be 98.5%; the viability at 24 h, 30 µM stood at 109%. In addition, in series [2], the activity at 1 µM is 93.3 ± 2.2%, the activity at 3 µM was determined as 91.4 ± 0.8%, the activity at 10 µM is 68.9 ± 4.5% and the activity at 30 µM amounted to 43.1 ± 1.1%. Moreover, the IC50 in series [2] stood at 23.9 µM.

Take `CC1(C)OC(=O)C[C@H](O)[C@]2(C)[C@H]3CC[C@@]4(C)[C@H](c5ccoc5)OC(=O)[C@H]5O[C@]54[C@]3(C)C(=O)C[C@@H]12` [Compound 11, deacetylnomilin]: in series [1], the viability at 24 h, 1 µM was 95.9%; the viability at 24 h, 3 µM was 100%; the viability at 24 h, 10 µM was found to be 99.3%; the viability at 24 h, 30 µM worked out at 100%. In addition, in series [2], the “Inhibitory Ratio of NO %” value was determined as 78.1 ± 3.4 %, the activity at 1 µM worked out at 104 ± 3.1%, the activity at 3 µM turned out to be 93.2 ± 3.2% and the activity at 10 µM turned out to be 84.7 ± 3.2%. For the same molecule, in series [2], the activity at 30 µM was determined as 78.1% and the IC50 was more than 30 µM.

As for `CC1(C)O[C@H]2CC(=O)OC[C@]23[C@H]2CC[C@@]4(C)[C@H](C5=CCOC5=O)OC(=O)[C@H]5O[C@]54[C@]2(C)C(=O)C[C@@H]13` [Compound 5, 21,23-Dihydro-21-oxolimonin], in series [1], the viability at 24 h, 1 µM worked out at 97.9%; the viability at 24 h, 3 µM stood at 97.9%; the viability at 24 h, 10 µM came out at 99.5%; the viability at 24 h, 30 µM was 96.6%. In series [2], the “Inhibitory Ratio of NO %” value was 83.2 ± 5.6 %, the activity at 1 µM was 99.5 ± 5.6%, the activity at 3 µM came out at 101 ± 4.7% and the activity at 10 µM worked out at 93.8 ± 1.6%. Moreover, in series [2], the activity at 30 µM was 83.2% and the IC50 is more than 30 µM.

Turning to `CC(C)(O)[C@@H]1CC(=O)[C@]2(C)[C@H](CC[C@@]3(C)[C@H](c4ccoc4)OC(=O)[C@H]4O[C@]432)[C@]12COC(=O)C[C@@H]2O` [Compound 12, ichangin], in series [1], the viability at 24 h, 1 µM is 101%; the viability at 24 h, 3 µM was 98.1%; the viability at 24 h, 10 µM was 98.3%; the viability at 24 h, 30 µM turned out to be 98.3%. In series [2], the “Inhibitory Ratio of NO %” value is 73.9 ± 3.4 %, the activity at 1 µM came out at 107 ± 4.1%, the activity at 3 µM stood at 92.6 ± 3.2% and the activity at 10 µM amounted to 88.4 ± 5.5%. Besides, in series [2], the activity at 30 µM was 73.9% and the IC50 is more than 30 µM.

On to `CC1(C)O[C@H]2CC(=O)OC[C@]23[C@H]2CC[C@@]4(C)[C@H](c5ccoc5)OC(=O)[C@H]5O[C@]54[C@]2(C)C(=O)C[C@@H]13` [Compound 6, limonin], for which, in series [1], the viability at 24 h, 1 µM stood at 100%; the viability at 24 h, 3 µM came to 95.6%; the viability at 24 h, 10 µM was determined as 97.2%; the viability at 24 h, 30 µM stood at 99.3%. In series [2], the activity at 1 µM came to 102 ± 4.4%, the activity at 3 µM is 93.4 ± 5.7%, the activity at 10 µM worked out at 90.9 ± 3.1% and the activity at 30 µM came to 86 ± 5.5%. Besides, the IC50 in series [2] was more than 30 µM.

Turning to `COC1OC(OC)C2(C3OC(=O)C4OC45C3(C)CCC3C46COC(=O)CC4OC(C)(C)C6CC(=O)C35C)OC12` (centres unmarked) [Compound 9, evolimorutanin], in series [1], the viability at 24 h, 1 µM was found to be 101%; the viability at 24 h, 3 µM came out at 97.7%; the viability at 24 h, 10 µM worked out at 101%; the viability at 24 h, 30 µM came out at 97.6%. In addition, in series [2], the activity at 1 µM stood at 94.3 ± 4.3%, the activity at 3 µM stood at 85.2 ± 6.4%, the activity at 10 µM was 91.3 ± 2.8% and the activity at 30 µM turned out to be 89.9 ± 3.2%. Also, in series [2], the IC50 is more than 30 µM.

Take `CC1(C)O[C@H]2CC(=O)OC[C@]23[C@H]2CC[C@@]4(C)[C@H](C5=CC(=O)OC5O)OC(=O)[C@H]5O[C@]54[C@]2(C)C(=O)C[C@@H]13` (some centres unmarked) [Compound 7, shihulimonin A]: in series [1], the viability at 24 h, 1 µM stood at 102%; the viability at 24 h, 3 µM was 106%; the viability at 24 h, 10 µM was found to be 104%; the viability at 24 h, 30 µM is 100%. In series [2], the activity at 1 µM was found to be 99.8 ± 1.4%, the activity at 3 µM is 99 ± 3%, the activity at 10 µM came out at 96.8 ± 2.5% and the activity at 30 µM amounted to 93.9 ± 4%. Moreover, the IC50 in series [2] is more than 30 µM.

Regarding `COC1C=C([C@@H]2OC(=O)[C@H]3O[C@@]34[C@@]2(C)CC[C@@H]2[C@@]35COC(=O)C[C@@H]3OC(C)(C)[C@@H]5CC(=O)[C@]24C)C(=O)O1` (some centres unmarked) [Compound 4, 21,23-dihydro-23-methoxy-21-oxolimonin], in series [1], the viability at 24 h, 1 µM came to 103%; the viability at 24 h, 3 µM turned out to be 97%; the viability at 24 h, 10 µM amounted to 95.1%; the viability at 24 h, 30 µM is 91.7%. In series [2], the activity at 1 µM worked out at 96.2 ± 7.9%, the activity at 3 µM came to 94 ± 2.7%, the activity at 10 µM is 101 ± 1.2% and the activity at 30 µM was 95.2 ± 3.4%. For the same molecule, the IC50 in series [2] is more than 30 µM.

As to `CC1(C)O[C@H]2CC(=O)OC[C@]23[C@H]2CC[C@@]4(C)[C@H](C5=CC(O)OC5=O)OC(=O)[C@H]5O[C@]54[C@]2(C)C(=O)C[C@@H]13` (some centres unmarked) [Compound 8, limonexic acid], in series [1], the viability at 24 h, 1 µM came to 98.1%; the viability at 24 h, 3 µM was 97.6%; the viability at 24 h, 10 µM stood at 92%; the viability at 24 h, 30 µM is 89.3%. In series [2], the “Inhibitory Ratio of NO %” value is 76.0 ± 2.2 %, the activity at 1 µM is 97.2 ± 1.1%, the activity at 3 µM amounted to 94.7 ± 2.4% and the activity at 10 µM was determined as 90.9 ± 1.6%. In series [2], the activity at 30 µM came out at 76% and the IC50 is more than 30 µM.

The values are drawn from article PMC6152666, “Five New Limonoids from Peels of Satsuma Orange (Citrus reticulata)” (Molecules : A Journal of Synthetic Chemistry and Natural …, 2017).
